{"source": "ChEMBL document CHEMBL4368861", "about": "(Medchemcomm, 2018)", "data": [{"tested_on": "Trypanosoma brucei brucei", "test": "microbe, parasite or virus in culture", "format": "functional, organism-based", "conditions": "427", "units": {"IC50": "nM"}, "values": [{"compound": "COc1ccc(C2=NN(C3CCCCCC3)C(=O)C2(C)C)cc1OCCCCOc1ccc(-c2nn[nH]n2)cc1", "IC50": 2300}, {"compound": "CC(C)(C)c1cnc(NC(=O)c2ccccc2O)s1", "IC50": 5450}, {"compound": "Cc1ncc(-c2ccnc(Nc3ccc(S(C)(=O)=O)cc3)n2)n1C(C)C", "note": "[AZD-5438]", "IC50": 140}, {"compound": "CN1CCC(NCc2cccc(-c3ccc(S(=O)(=O)NCc4ccccc4)cc3)c2)CC1", "IC50": 2380}, {"compound": "Cc1ccc2c(c1C)NC(=O)C21NN=C(c2ccccc2)S1", "note": "(configuration not stated)", "IC50": 4680}, {"compound": "N=C(N)Nc1ccc(-c2ccc(-c3ccc(N=C(N)N)c(Cl)c3)o2)cc1Cl", "IC50": 520}, {"compound": "Cc1nn(C)c(C)c1NS(=O)(=O)c1c(Cl)cc(-c2ccnc(N3CCNCC3)c2)cc1Cl", "IC50": 10}, {"compound": "N=C(N)c1ccc(-c2cc(-c3ccccc3)on2)cc1", "IC50": 3500}, {"compound": "COc1ccc(C(=N)N)cc1-c1cn(-c2ccc(C(=N)N)cc2)nn1", "IC50": 270}, {"compound": "NCCN(C(=O)c1ccc(Cl)cc1Cl)c1ccc(OCc2ccc(Cl)cc2)cc1", "IC50": 240}, {"compound": "O=C(Nc1ccccc1)c1ccc(-c2cc3ccncc3cc2OC2CCNCC2)s1", "IC50": 2720}, {"compound": "N=C(N)Nc1ccc(-c2ccc(-c3ccc(NC(=N)N)cc3Cl)o2)c(Cl)c1", "IC50": 5700}, {"compound": "CNC(=O)C1Cc2ccccc2N1C(=O)Cc1ccc(F)cc1", "note": "(configuration not stated)", "IC50": 1500}, {"compound": "COc1ccc(OC)c(NCc2ccc3nc(N)nc(N)c3c2Cl)c1", "IC50": 2070}, {"compound": "O=C(Nc1ccc(C(F)(F)F)c(C(F)(F)F)c1)c1cc(Cl)ccc1O", "IC50": 660}, {"compound": "Nc1nccc2ccc(-c3ccc4nccn4c3)cc12", "IC50": 3290}, {"compound": "c1ccc(-c2nc(NC3CCCCC3)cc(C3CC3)n2)nc1", "IC50": 3510}, {"compound": "CO[C@@H](C(=O)N1Cc2[nH]nc(NC(=O)c3ccc(N4CCN(C)CC4)cc3)c2C1)c1ccccc1", "note": "[DANUSERTIB]", "IC50": 1300}, {"compound": "Cc1ccc2[nH]c(C3CCCNC3)c(-c3ccncc3)c2c1", "note": "(configuration not stated)", "IC50": 5150}, {"compound": "CCc1ccccc1-n1c(C)cn2c3c(=O)n(C(C(=O)OC)C(C)C)c(=O)n(C)c3nc12", "note": "(configuration not stated)", "IC50": 130}, {"compound": "O=C(Nc1ccc2c(c1)B(O)OC2)c1ccccc1C(F)(F)F", "IC50": 110}, {"compound": "O=C(Nc1ccc(F)c(-c2nc3cc(-c4ccccc4)cnc3[nH]2)c1)N1CCCC1", "IC50": 20}, {"compound": "CNC(=O)c1nn(C)c2c1C(C)(C)Cc1cnc(Nc3ccc(N4CCN(C)CC4)cc3)nc1-2", "note": "[MILCICLIB]", "IC50": 170}, {"compound": "CN(C)c1cc(NC(=O)Nc2ccccc2)c2ccccc2n1", "IC50": 3360}, {"compound": "c1ccc(Oc2ccc(-c3cc(C4CCOCC4)[nH]n3)cc2)cc1", "IC50": 1800}, {"compound": "COc1ccc(C2=NN(C3CCCCCC3)C(=O)[C@@H]3CC=CC[C@H]23)cc1OCCCCOc1ccc(-c2nnn[nH]2)cc1", "IC50": 500}, {"compound": "COc1cccc(-n2nnnc2S(C)(=O)=O)c1", "IC50": 4120}, {"compound": "O=C(NCCc1ccccc1)c1cc(-c2cccnc2)cnc1NCC1CC1", "IC50": 6020}, {"compound": "CS(=O)(=O)c1ccccc1C(=O)N(Cc1ccccc1)c1ccccc1", "IC50": 500}, {"compound": "CCCCN(CCCC)c1c(C#N)cc(S(=O)(=O)Nc2ccccc2)cc1C#N", "IC50": 1200}, {"compound": "O=C(NCc1nnc2n1CCCCC2)c1ccc(-c2ccc(F)cc2)o1", "IC50": 230}, {"compound": "c1ccc(Oc2ccc(-c3cc(N4CCNCC4)[nH]n3)cc2)cc1", "IC50": 5100}, {"compound": "CC(Oc1ccccc1)C(=O)Nc1nc(-c2ccccn2)cs1", "note": "(configuration not stated)", "IC50": 3220}, {"compound": "Cc1ccc(S(=O)(=O)Nc2ccc(CN3CCN(C(=O)c4cccc(C#N)c4)CC3)cc2)cc1", "IC50": 240}, {"compound": "Nc1nc2cc(-c3cncc(Oc4ccc(F)cc4)c3)ccc2[nH]1", "IC50": 1050}, {"compound": "CC(C)n1nc(-c2cc3c(Cl)cccc3[nH]2)c2c(N)ncnc21", "IC50": 6100}, {"compound": "O=C(Nc1ccc(N2CCNCC2)cc1)c1ccn2ncc(-c3cccc(Cl)c3)c2n1", "IC50": 1450}, {"compound": "CS(=O)(=O)c1ccc(C(=O)N(CC2CCCO2)c2nc3ccccc3s2)cc1[N+](=O)[O-]", "note": "(configuration not stated)", "IC50": 3490}, {"compound": "Cc1[nH]c2ccccc2c1C(c1cccs1)N1CCN(C)CC1", "note": "(configuration not stated)", "IC50": 1500}, {"compound": "CCN(CC)S(=O)(=O)c1ccc(C(=O)Nc2cc(C)nn2-c2nc(C)c(C)c(=O)[nH]2)cc1", "IC50": 4300}, {"compound": "CCC(=O)Nc1ccccc1C(=O)Nc1ccccn1", "IC50": 1000}, {"compound": "CC1=Nc2ccc(Cl)cc2C(O)(c2ccc(C)cc2)N1CCN1CCCCC1", "note": "(configuration not stated)", "IC50": 4500}, {"compound": "CC1CCCCN1C(=O)NCCc1coc(-c2ccc(F)cc2)n1", "note": "(configuration not stated)", "IC50": 130}, {"compound": "CCOC(=O)c1c(NC(=O)c2c(F)c(F)c(F)c(F)c2F)sc(C(N)=O)c1C", "IC50": 2990}, {"compound": "O=C(Nc1nc(-c2ccccn2)cs1)c1cncn1-c1ccccc1", "IC50": 2870}, {"compound": "Cc1noc(C)c1COc1cccc(C(=O)N=c2[nH]cccc2C)c1", "IC50": 1200}, {"compound": "O=C(NCCc1ccn(-c2ccccc2)n1)C1CCCCC1", "IC50": 270}, {"compound": "Cc1nn2c(=O)c3c([nH]c2c1-c1ccc(Cl)cc1)CCCC3", "IC50": 1800}, {"compound": "COc1ccc(S(=O)(=O)Nc2ccc(CN3CCN(C(=O)c4cccc(C#N)c4)CC3)cc2)cc1", "IC50": 1100}, {"compound": "OCCc1ccc(Nc2nccc(-c3nnc4ccccn34)n2)cc1", "IC50": 2390}, {"compound": "CN1CCN(S(=O)(=O)c2ccc(-c3ccc4c(Nc5ncc(Cl)cn5)ccnc4c3)cc2)CC1", "IC50": 5300}]}, {"tested_on": "Trypanosoma brucei brucei", "test": "Antitrypanosomal activity against Trypanosoma brucei brucei by pathogen box screening based assay", "format": "functional, organism-based", "conditions": "not given", "units": {"IC50": "nM"}, "values": [{"compound": "Cc1nn2c(=O)c3c([nH]c2c1-c1ccc(Cl)cc1)CCCC3", "IC50": 500}]}, {"tested_on": "not listed separately", "test": "in vitro", "conditions": "human", "values": [{"compound": "CN1CCC(NCc2cccc(-c3ccc(S(=O)(=O)NCc4ccccc4)cc3)c2)CC1", "selectivity ratio": 59}, {"compound": "CCCn1c(NC(=O)c2ccc3ccccc3n2)nc2ccccc21", "selectivity ratio": 3.5}, {"compound": "COc1cc(-c2cc(-c3ccc(S(C)(=O)=O)cc3)cnc2N)ccc1O", "selectivity ratio": 76}, {"compound": "COc1ccc(OC)c(NCc2ccc3nc(N)nc(N)c3c2Cl)c1", "selectivity ratio": 21}, {"compound": "c1ccc(-c2nc(NC3CCCCC3)cc(C3CC3)n2)nc1", "selectivity ratio": 30}, {"compound": "Oc1c(I)cc(I)c2cccnc12", "note": "[IODOQUINOL]", "selectivity ratio": 13}, {"compound": "Cc1cnc(N2CCN[C@@H](Cc3ccccc3)C2)nc1Oc1ccc(-n2ccnc2)cc1", "selectivity ratio": 4.9}, {"compound": "CN(C)c1cc(NC(=O)Nc2ccccc2)c2ccccc2n1", "selectivity ratio": 5.3}, {"compound": "COc1ccc2nccc(NC(=O)C3CCN(CCc4ccc(Cl)cc4)CC3)c2n1", "selectivity ratio": 0.8}, {"compound": "CC(Oc1ccccc1)C(=O)Nc1nc(-c2ccccn2)cs1", "note": "(configuration not stated)", "selectivity ratio": 11}, {"compound": "COC(=O)c1c(NC(=O)c2c(F)c(F)c(F)c(F)c2F)sc2c1CCCCC2", "selectivity ratio": 2.2}, {"compound": "CC(C)n1nc(-c2cc3c(Cl)cccc3[nH]2)c2c(N)ncnc21", "selectivity ratio": 5.8}, {"compound": "CS(=O)(=O)c1ccc(C(=O)N(CC2CCCO2)c2nc3ccccc3s2)cc1[N+](=O)[O-]", "note": "(configuration not stated)", "selectivity ratio": 2.3}, {"compound": "CCOC(=O)c1c(NC(=O)c2c(F)c(F)c(F)c(F)c2F)sc(C(N)=O)c1C", "selectivity ratio": 2.2}, {"compound": "OCCc1ccc(Nc2nccc(-c3nnc4ccccn34)n2)cc1", "selectivity ratio": 17}]}]}
